One data set in a line: logP determination through HPLC (EEC directive 79/831 Annex V. A8). Format: physicochemical.
Settings: not given
By logP is commonly meant a log measure of how a compound divides between an organic and an aqueous phase. Consider `CC(Nc1c(-c2ncncc2Cl)c(Cl)nc2c(C=O)cnn12)C(F)(F)F` (single isomer, unassigned) [Example 55], for which the logP turned out to be 2.46. Still for that read-out and setting: with `CC(C)(C)CNc1c(-c2cc(Cl)sc2Cl)c(Cl)nc2c(C#N)cnn12` [Example 15] the figure was 5.31; with `N#Cc1cnn2c(N3CCOCC3)c(-c3cc(Cl)sc3Cl)c(Cl)nc12` [Example 28], 3.85. `CC(C)C(C)Nc1c(-c2ncncc2F)c(Cl)nc2c(C#N)cnn12` (stereo not shown) [Example 57]: the log partition coefficient (logP) amounted to 2.92. The same measure, in the same setting: in the case of `CC(C)C(C)Nc1c(-c2ncncc2Cl)c(Cl)nc2c(C#N)cnn12` (stereo not shown) [Example 4] it was 3.13; in that of `CC(C)Nc1c(-c2cc(Cl)sc2Cl)c(Cl)nc2c(C#N)cnn12` [Example 11], 4.41; in that of `CCC(C)Nc1c(-c2cc(Cl)sc2Cl)c(Cl)nc2c(C#N)cnn12` (stereo not shown) [Example 10], 4.82. Still for that read-out and setting: with `CC(C)CC(C)Nc1c(-c2cc(Cl)sc2Cl)c(Cl)nc2c(C#N)cnn12` (stereo not shown) [Example 29] the figure was 5.59; with `CN(CCC#N)c1c(-c2cc(Cl)sc2Cl)c(Cl)nc2c(C#N)cnn12` [Example 19], 3.90. The molecule `COCCN(C)c1c(-c2cc(Cl)sc2Cl)c(Cl)nc2c(C#N)cnn12` [Example 18] gave a logP of 4.32.

In the case of `N#Cc1cnn2c(N3CCCCC3)c(-c3cc(Cl)sc3Cl)c(Cl)nc12` [Example 23], the logP was 6.19.

`CCCN(CC1CC1)c1c(-c2cc(Cl)sc2Cl)c(Cl)nc2c(C#N)cnn12` [Example 20] returned a logP of 5.78. In turn, `CC(Nc1c(-c2ncncc2Cl)c(Cl)nc2c(C#N)cnn12)C(C)(C)C` (stereo not shown) [Example 3] returned a logP of 3.54.

`CC(C)CNc1c(-c2cc(Cl)sc2Cl)c(Cl)nc2c(C#N)cnn12` [Example 9] returned a logP of 4.82. `CC(Nc1c(-c2ncncc2F)c(Cl)nc2ccnn12)C(C)(C)C` (stereo not shown) [Example 60] yielded a logP of 3.42. On the same count and under the same terms, in the case of `CC(Nc1c(-c2ncncc2F)c(Cl)nc2c(Cl)cnn12)C(C)(C)C` (stereo not shown) [Example 59] it was 4.11; in that of `N#Cc1cnn2c(NCC(F)(F)F)c(-c3cc(Cl)sc3Cl)c(Cl)nc12` [Example 30], 4.06.

`COCCNc1c(-c2cc(Cl)sc2Cl)c(Cl)nc2c(C#N)cnn12` [Example 17] gave a logP of 3.90. Still for that read-out and setting: with `CC(Nc1c(-c2ncncc2Cl)c(Cl)nc2c(C=O)cnn12)C(C)(C)C` (stereo not shown) [Example 62] the figure was 3.12; with `CC1CCCN1c1c(-c2ncncc2Cl)c(Cl)nc2c(C=O)cnn12` (stereo not shown) [Example 54], 2.44. Consider `CC(Nc1c(-c2ncncc2F)c(Cl)nc2c(C#N)cnn12)C(C)(C)C` (stereo not shown) [Example 56], for which the logP is 3.29.

`CC(Nc1c(-c2ncncc2Cl)c(Cl)nc2c(Cl)cnn12)C(C)(C)C` (stereo not shown) [Example 5]: the logP is listed as 4.36. Same read-out and setting: in the case of `CC1CCN(c2c(-c3ncncc3F)c(Cl)nc3c(C#N)cnn23)CC1` [Example 63] it was 3.20; in that of `N#Cc1cnn2c(N3CCC(C(F)(F)F)CC3)c(-c3ccsc3)c(Cl)nc12` [Example 53], 4.03. Still for that read-out and setting: with `CC(C)C(C)Nc1c(-c2ncncc2F)c(Cl)nc2ccnn12` (stereo not shown) [Example 61] the figure was 2.98; with `CC(C)CN(C)c1c(-c2cc(Cl)sc2Cl)c(Cl)nc2c(C#N)cnn12` [Example 12], 5.31; with `CC(C)C(C)Nc1c(-c2cc(Cl)sc2Cl)c(Cl)nc2c(C#N)cnn12` (stereo not shown) [Example 24], 5.19.

`CC(Nc1c(-c2cc(Cl)sc2Cl)c(Cl)nc2c(C#N)cnn12)C(F)(F)F` (single isomer, unassigned) [Example 31] yielded a logP of 4.46.

Molecule `N#Cc1cnn2c(N3CCCC3)c(-c3cc(Cl)sc3Cl)c(Cl)nc12` [Example 21] yielded a logP of 4.61. Molecule `CC(Nc1c(-c2ncncc2F)c(Cl)nc2c(C#N)cnn12)C(F)(F)F` (stereo not shown) [Example 58] returned a logP of 2.65. Take `COC(=O)c1cnn2c(NC(C)C(C)(C)C)c(-c3ncncc3F)c(Cl)nc12` (stereo not shown) [Example 64]: the logP worked out at 3.15. The same measure, in the same setting: in the case of `N#Cc1cnn2c(N3CCC(F)(F)CC3)c(-c3ccsc3)c(Cl)nc12` [Example 36] it was 3.61; in that of `CC1CN(c2c(-c3cc(Cl)sc3Cl)c(Cl)nc3c(C#N)cnn23)CC(C)O1` (stereo not shown) [Example 27], 4.72.

The data set is the same for the next values; noted with them: HPLC, gradient method, acetonitrile/0.1% aqueous phosphoric acid.
Molecule `CCN(CCC#N)c1c(-c2ccsc2)c(Cl)nc2c(C#N)cnn12` [Example 52] had a logP of 2.98. The same measure, in the same setting: in the case of `CCC(C)Nc1c(-c2ccsc2)c(Cl)nc2c(C#N)cnn12` (stereo not shown) [Example 38] it was 3.74; in that of `CC1CCN(c2c(-c3ccsc3)c(Cl)nc3c(C#N)cnn23)CC1` [Example 43], 4.41. `CC(C)(C)CNc1c(-c2ccsc2)c(Cl)nc2c(C#N)cnn12` [Example 32] displayed a logP of 4.18.

What is called chromatographic logP is lipophilicity estimated from chromatographic retention. Consider `CC1CCN(c2c(-c3ncncc3Cl)c(Cl)nc3c(C=O)cnn23)CC1` [Example 74, 5-chloro-6-(5-chloro-pyrimidin-4-yl)-3-formyl-7-(4-methyl-piperidin-1-yl)-pyrazolo[1,5-a]-pyrimidine], for which the chromatographic logP was 3.04. As for `CC(C)C(C)Nc1c(-c2ccsc2)c(Cl)nc2c(C#N)cnn12` (stereo not shown) [Example 34], the logP is 4.08.

Turning to `CC1CCCCN1c1c(-c2ccsc2)c(Cl)nc2c(C#N)cnn12` (stereo not shown) [Example 42], the logP amounted to 4.27. `N#Cc1cnn2c(NCC(F)(F)F)c(-c3ccsc3)c(Cl)nc12` [Example 8]: the logP was determined as 3.21. In turn, `COCCN(C)c1c(-c2ccsc2)c(Cl)nc2c(C#N)cnn12` [Example 51] returned a logP of 3.17. The same measure, in the same setting: in the case of `N#Cc1cnn2c(N3CCCCC3)c(-c3ccsc3)c(Cl)nc12` [Example 49] it was 3.58. `C=Cc1cnn2c(N3CCC(C)CC3)c(-c3ncncc3Cl)c(Cl)nc12` [Example 75] displayed a chromatographic logP of 4.7. `N#Cc1cnn2c(NC3CCCC3)c(-c3cc(Cl)sc3Cl)c(Cl)nc12` [Example 16]: the logP came out at 5.03. Same read-out and setting: in the case of `CC(C)CNc1c(-c2ccsc2)c(Cl)nc2c(C#N)cnn12` [Example 37] it was 3.78; in that of `COCCNc1c(-c2ccsc2)c(Cl)nc2c(C#N)cnn12` [Example 45], 2.94. Same read-out and setting: with `N#Cc1cnn2c(N3CCOCC3)c(-c3ccsc3)c(Cl)nc12` [Example 44] the figure was 2.90.

For `N#Cc1cnn2c(Cl)c(-c3ncccc3C(F)(F)F)c(Cl)nc12` [Example 65, 3-cyano-5,7-dichloro-6-(3-trifluoromethyl-pyridin-2-yl)-pyrazolo-[1,5-a]pyrimidine], the chromatographic logP came to 2.68.

Molecule `CCCN(CC1CC1)c1c(-c2ccsc2)c(Cl)nc2c(C#N)cnn12` [Example 47] showed a logP of 4.51. The molecule `N#Cc1cnn2c(N3CCCC3)c(-c3ccsc3)c(Cl)nc12` [Example 41] gave a logP of 3.53. For `N#Cc1cnn2c(O)c(-c3ncccc3C(F)(F)F)c(O)nc12` [Example 68, 3-cyano-6-(3-trifluoromethyl-pyridin-2-yl)-pyrazolo[1,5-a]pyrimidin-5,7-diol], the chromatographic logP was 0.29. The molecule `CC(C)CN(C)c1c(-c2ccsc2)c(Cl)nc2c(C#N)cnn12` [Example 40] displayed a logP of 4.13.

`CC(C)CC(C)Nc1c(-c2ccsc2)c(Cl)nc2c(C#N)cnn12` (stereo not shown) [Example 6] had a logP of 4.46. For the molecule `CC1CN(c2c(-c3ccsc3)c(Cl)nc3c(C#N)cnn23)CC(C)O1` (stereo not shown) [Example 48], the logP is 3.53. Molecule `CC(Nc1c(-c2ccsc2)c(Cl)nc2c(C#N)cnn12)C(F)(F)F` (stereo not shown) [Example 7] gave a logP of 3.53. On the same count and under the same terms, in the case of `N#Cc1cnn2c(NC3CCCC3)c(-c3ccsc3)c(Cl)nc12` [Example 33] it was 3.00; in that of `CC(C)Nc1c(-c2ccsc2)c(Cl)nc2c(C#N)cnn12` [Example 39], 3.37.
